Experimental data taken from PMC3006138, “Fexinidazole – A New Oral Nitroimidazole Drug Candidate Entering Clinical Development for the Treatment of Sleeping Sickness” (PLoS Neglected Tropical Diseases, 2010).

Columns and labels:
[1] = design: method as in ref 2 (report no. 0259-2007-R); conditions: oral, normalized to 1 mg/kg, previous rat study, ref 2 (report no. 0259-2007-R); cited from earlier work
[2] = in vivo; conditions: both sexes, beagle, dog, po
Procedure: In the dog repeated-dose toxicokinetic study, fexinidazole was given orally by gavage once a day for 28 days to five (control and high dose) or three (low and mid dose) beagle dogs/sex/dose at the doses of 0 (control group), 50, 200, or 800 mg/kg/day. The control group received the vehicle alone (same as above). Systemic exposure to fexinidazole and of its sulfoxide and sulfone metabolites was evaluated on days 1, 14 and 28 in the same animals used for the toxicological study. Samples were taken at predose, and 30 min, 1, 2, 4, 8 and 24 h after dosing on days 1, 14, and 28, and in addition at 48 and 72 h after treatment on day 28.

[3] = in vitro; conditions: human
Procedure: Caco-2 [36] or MDR1-MDCK (Madin Darby canine kidney cells transfected with the human multidrug resistance MDR1 gene) cell monolayers were grown to confluence on collagen-coated, microporous, polycarbonate membranes in 12-well microtitre plates. The buffer for the donor chamber was Hanks balanced salt solution with 10 mM HEPES and 15 mM glucose at pH 7.4. The buffer in the receiver chamber contained the same with the addition of 1% bovine serum albumin (BSA). The test article was added at 5 µM in the assay buffer. […] After 2 h, duplicate aliquots were taken from the donor and receiver chambers and assayed via LC/MS. The apparent permeability and recovery were calculated using standard methods.
The objective of this study was to determine the bi-directional Caco-2 permeability and efflux limited absorption poten tial of thr ee test compoun ds. […]
4 . […] Th e test compound dosing concentrations were 5 µM in th e a ssay bu f fer . […] After two hours, a l iquot s wer e t a ken fr om th e r ecei ver an d don or cha m ber s. E a ch det erm ina ti on wa s per for m ed in dupl i cat e. Th e Lucifer Yellow flux was also measur ed for each mon olayer after bein g subjected to th e test compoun ds to en sur e n o damage was in flicted to th e cell mon olayer s durin g th e flux per iod. All samples wer e assayed by LC/MS/MS usin g electrospray ionization. Analytical conditions are outlined in Attachment I. The apparent permeability, Papp, and per cen t r ecover y wer e calculated as follows:
Papp = (dCr /dt) x Vr/(AxC) (1)
P er cen t Rec o ver y = 1 0 0 x ( ( V r x C rfi n a l ) + (Vd x Cd fi n a l ))/(Vd x C N) (2) […]
dCr /dt is th e slope of th e cumulative con cen tration in th e r eceiver compartment ver sus time in µM s -1. […]

[4] = design: method as in ref 3 (report no. 0275-2007-R); conditions: single 50 mg/kg po, ref 3 (report no. 0275-2007-R); cited from earlier work
[5] = tested on: T. b. rhodesiense STIB900; test: Acute infection mouse model; assay type: in vivo
Procedure: (§1) Female NMRI mice were infected via intraperitoneal injection with bloodstream forms of T. b. rhodesiense STIB900 or T. b. gambiense 130R and treated with test drugs daily for 4 consecutive days, starting on day 3 or 7 after infection, respectively, or with bloodstream forms of T. b brucei GVR35 and treated daily from day 21 after infection for 5 days. Parasitemia was evaluated by tail blood examination and surviving, aparasitaemic mice at 60, 90, or 180 days, respectively, were considered cured.

[6] = tested on: T. b. gambiense 130R; test: Acute infection mouse model; assay type: in vivo; conditions: 100 mg/kg×4 days po
Procedure: as §1

SMILES: CSc1ccc(OCc2ncc([N+](=O)[O-])n2C)cc1 [Fexinidazole, 1-methyl-2-((p-(methylthio)phenoxy)methyl)-5-nitroimidazole]
- AUC0-∞, norm [1]: 45 ng⋅h/mL
- NOAEL at 28 days [2]: 200 mg/kg/day
- Papp A→B at 2 h, 5 µM ([3]; Caco-2, pH 7.4): 57.2 ×10⁻⁶ cm/s
- Papp B→A at 2 h, 5 µM ([3]; Caco-2, pH 7.4): 50.9 ×10⁻⁶ cm/s
- efflux ratio at 2 h, 5 µM ([3]; Caco-2, pH 7.4): 0.9
- recovery at 2 h, 5 µM ([3]; Caco-2, pH 7.4, Percent Recovery A→B): 72%
- recovery at 2 h, 5 µM ([3]; Caco-2, pH 7.4, Percent Recovery B→A): 81%
- AUC0-tlast [4]: 416 ng⋅h/mL
- Cmax [4]: 154 ng/mL
- Cured/infected ([5]; 25 mg/kg×4 days po): 0/4
- Mean relapse time ([5]; 25 mg/kg×4 days po): 12 days
- efficacy ([5]; 50 mg/kg twice a day for 4 days po, T. b. rhodesiense and T. b. gambiense acute models): effective in curing
- Cured/infected ([5]; 50 mg/kg×4 days po): 1/4
- Mean relapse time ([5]; 50 mg/kg×4 days po): >27 days
- Cured/infected ([5]; 100 mg/kg×4 days po): 4/4
- Mean relapse time ([5]; 100 mg/kg×4 days po): >60 days
- efficacy ([5]; single high dose, acute model, data not shown): partially curative
- Cured/infected [6]: 3/3
- Mean relapse time [6]: >90 days
